In ChEMBL document CHEMBL3244112, “Dipeptides of O-methyl-L-threonine as potential antimalarials” (J Med Chem, 1979) one finds Activity data, which are given here for 5 molecules.

The source made the active and inactive calls. The calls are words filed in the database; no cut-off is given here. Peptide text beside a SMILES is read from it.

The test system of data set [1] is Plasmodium berghei. Kind of data set: Antimalarial activity against Plasmodium berghei infected in mouse assessed as increase of survival time of host at 160 to 640 mg/kg. Type of data set: functional, organism-based.
Data set [2] has as its system Plasmodium berghei. Kind of data set: Antimalarial activity against Plasmodium berghei infected in mouse assessed as increase of survival time of host at 640 mg/kg. On the set-up: dose 640 mg/kg. Type of data set: functional, organism-based.
The subject of a further data set is Mus musculus. As to the kind of experiment: Toxicity in Plasmodium berghei infected mouse at <640 mg/kg. Type of data set: organism-based. To be noted: in vivo.
Data set [3] has as its system Plasmodium berghei. Kind of data set: Antimalarial activity against Plasmodium berghei infected in mouse assessed as increase of survival time of host. The class given is functional, organism-based.

As for `CO[C@H](C)[C@H](N)C(=O)O`, in the data set with Plasmodium berghei [1], the result was Active.

As for `CO[C@H](C)[C@H](NC(=O)[C@@H](N)CC(C)C)C(=O)O` (H-Leu-Thr(Me)-OH), the outcome with Plasmodium berghei [2] was inactive. Moreover, the Activity entry in the data set with Mus musculus is reported as “Non-toxic”.

On to `CO[C@H](C)[C@H](N)C(=O)N[C@@H](CC(C)C)C(=O)O` (H-Thr(Me)-Leu-OH), for which the result in the data set on Plasmodium berghei [2] was inactive. Besides, the Activity entry with Mus musculus is given as “Non-toxic”.

For `CO[C@H](C)[C@H](N)C(=O)N[C@H](C(=O)O)[C@@H](C)OC` (H-Thr(Me)-Thr(Me)-OH), the outcome in the data set with Plasmodium berghei [3] and in the data set with Plasmodium berghei [2] was Active.

As to `CC(C)C[C@H](N)C(=O)O` [LEUCINE], the outcome in the data set on Plasmodium berghei [2] was inactive. For the same molecule, in the data set on Mus musculus, the Activity entry is listed as “Non-toxic”.
